In assay [1] the target is T1, Tyrosine-protein kinase JAK3 (Homo sapiens) (UniProt P52333).
T1 sequence (whole entry): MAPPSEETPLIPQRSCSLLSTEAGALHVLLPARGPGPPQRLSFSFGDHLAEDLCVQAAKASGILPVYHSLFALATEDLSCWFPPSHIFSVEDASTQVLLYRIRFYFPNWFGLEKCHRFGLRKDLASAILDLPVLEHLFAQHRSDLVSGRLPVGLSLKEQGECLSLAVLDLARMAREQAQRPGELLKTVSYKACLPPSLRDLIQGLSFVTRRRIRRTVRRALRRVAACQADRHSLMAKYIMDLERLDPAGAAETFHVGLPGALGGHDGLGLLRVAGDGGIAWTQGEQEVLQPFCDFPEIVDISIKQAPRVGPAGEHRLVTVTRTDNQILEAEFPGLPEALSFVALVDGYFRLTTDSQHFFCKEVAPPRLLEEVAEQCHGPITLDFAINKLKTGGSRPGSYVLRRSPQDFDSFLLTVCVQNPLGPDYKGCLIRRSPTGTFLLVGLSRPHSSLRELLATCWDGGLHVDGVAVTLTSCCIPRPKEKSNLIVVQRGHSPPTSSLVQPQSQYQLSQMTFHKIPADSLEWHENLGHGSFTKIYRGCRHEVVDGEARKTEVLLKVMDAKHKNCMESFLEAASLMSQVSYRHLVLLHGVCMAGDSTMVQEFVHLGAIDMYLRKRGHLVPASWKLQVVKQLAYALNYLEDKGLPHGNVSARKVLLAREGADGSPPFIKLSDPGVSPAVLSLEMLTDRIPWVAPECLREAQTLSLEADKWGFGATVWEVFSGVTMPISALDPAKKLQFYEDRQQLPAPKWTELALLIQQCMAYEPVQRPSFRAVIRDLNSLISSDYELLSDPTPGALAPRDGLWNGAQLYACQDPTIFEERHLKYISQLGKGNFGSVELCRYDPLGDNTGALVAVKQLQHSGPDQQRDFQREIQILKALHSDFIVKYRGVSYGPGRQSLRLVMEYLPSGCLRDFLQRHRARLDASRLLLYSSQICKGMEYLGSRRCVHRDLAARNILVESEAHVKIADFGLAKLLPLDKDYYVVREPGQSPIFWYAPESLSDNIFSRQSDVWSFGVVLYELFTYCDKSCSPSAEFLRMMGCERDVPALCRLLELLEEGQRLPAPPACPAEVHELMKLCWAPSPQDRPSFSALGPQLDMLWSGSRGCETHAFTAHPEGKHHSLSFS
Kind of assay: Inhibition of TEL-fused JAK3 kinase domain (2520 to 3469 nucleotide) (unknown origin) expressed in mouse BaF3 cells assessed as decrease in cell growth at 20 uM after 40 hrs by MTT assay relative to control. The format is cell-based.

For assay [2], the target named is Tubulin (Homo sapiens) (UniProt P68371+Q9H4B7+P0DPH7+P68366+Q13509+Q71U36+P04350+Q3ZCM7+P07437+P68363+Q9BQE3+Q6PEY2+Q13885+Q9BVA1+Q9BUF5). The experiment in a line: Inhibition of tubulin (unknown origin) polymerization at 50 uM by turbidometric method relative to control. It counts as protein-complex assay. The procedure, abridged:
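The inhibition of polymerisation reported here is expressed as percent of control. Polymerisation of microtubule protein of unstated origin, after incubation with compound at 0° C., was started with 1 mM GTP and heating to 37° C. and was tracked over time as absorbance at 340 nm in a thermostatically controlled spectrophotometer.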

The nature of assay [3]: Cytotoxicity against human K562 cells assessed as growth inhibition at 20 uM after 40 hrs by MTT assay relative to control. It counts as functional. As to conditions: K562, 40 h, read-out: GI. The procedure, abridged: (§1)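 Human tumour cells in late log phase, each in its own medium with 10% FBS, were added at 90 µL per well (1.1× final, 50000 to 200,000 cell/mL) to 10 µL compound (10× final) in 96-well plates, from screening plates prepared at 20 µM. Plates were incubated 40 hr at 37° C., 5% CO2, then MTT was added for 6 hours, lysed overnight with SDS/HCl and read at 590 nm. Growth inhibition is relative to control.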

Assay [4] can be described thus: Cytotoxicity against human DU145 cells assessed as growth inhibition at 20 uM after 40 hrs by MTT assay relative to control. As to conditions: DU-145, 40 h, read-out: GI. The format is functional. The procedure, abridged:
as §1
(In general: Tetrazolium dyes change colour on reduction, which living cells bring about.)

Assay [5] in a line: Cytotoxicity against human PC3 cells assessed as growth inhibition at 20 uM after 40 hrs by MTT assay relative to control. It counts as functional. Conditions: PC-3, 40 h, read-out: GI. The procedure, abridged: as §1
The target of assay [6] is Tyrosine-protein kinase JAK2 (Homo sapiens) (UniProt O60674). The experiment in a line: Inhibition of TEL-fused JAK2 kinase domain (2994 to 3914 nucleotide) (unknown origin) expressed in mouse BaF3 cells assessed as decrease in cell growth at 20 uM after 40 hrs by MTT assay relative to control. The format is cell-based.

Each structure is given as a SMILES string.

What is called inhibition is how much of the control response was suppressed.

Tyrosine-protein kinase JAK2 (Homo sapiens), sequence (O60674 whole entry, the tested form may be a part): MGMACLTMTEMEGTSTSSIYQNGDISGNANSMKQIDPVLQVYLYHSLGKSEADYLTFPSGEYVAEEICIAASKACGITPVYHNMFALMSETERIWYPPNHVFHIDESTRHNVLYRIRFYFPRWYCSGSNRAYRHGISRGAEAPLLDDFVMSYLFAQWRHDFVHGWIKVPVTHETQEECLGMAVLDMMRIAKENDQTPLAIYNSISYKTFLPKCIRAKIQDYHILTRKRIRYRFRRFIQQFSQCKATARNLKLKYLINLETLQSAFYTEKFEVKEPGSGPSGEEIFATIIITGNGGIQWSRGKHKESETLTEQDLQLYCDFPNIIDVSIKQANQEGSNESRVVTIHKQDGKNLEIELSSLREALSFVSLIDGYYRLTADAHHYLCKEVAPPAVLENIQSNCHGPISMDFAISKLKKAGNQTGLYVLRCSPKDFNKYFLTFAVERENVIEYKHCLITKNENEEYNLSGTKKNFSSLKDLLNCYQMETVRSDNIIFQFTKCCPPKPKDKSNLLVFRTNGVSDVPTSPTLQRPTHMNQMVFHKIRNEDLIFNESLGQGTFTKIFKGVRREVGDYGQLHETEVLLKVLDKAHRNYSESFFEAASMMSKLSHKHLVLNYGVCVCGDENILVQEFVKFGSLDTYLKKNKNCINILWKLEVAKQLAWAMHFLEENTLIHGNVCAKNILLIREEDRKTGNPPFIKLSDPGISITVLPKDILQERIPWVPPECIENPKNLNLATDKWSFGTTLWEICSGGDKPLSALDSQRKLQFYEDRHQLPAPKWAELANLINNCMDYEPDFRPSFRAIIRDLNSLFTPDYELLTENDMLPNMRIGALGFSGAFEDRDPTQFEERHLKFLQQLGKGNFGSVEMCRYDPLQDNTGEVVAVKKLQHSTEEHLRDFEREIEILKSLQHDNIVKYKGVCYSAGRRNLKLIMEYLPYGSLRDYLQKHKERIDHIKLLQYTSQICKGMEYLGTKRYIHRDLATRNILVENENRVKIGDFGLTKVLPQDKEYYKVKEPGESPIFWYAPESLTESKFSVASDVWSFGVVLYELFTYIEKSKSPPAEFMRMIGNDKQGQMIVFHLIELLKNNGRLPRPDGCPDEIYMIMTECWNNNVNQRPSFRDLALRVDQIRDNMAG

Take `CCC[C@H](Nc1cncc(-c2ccc(NC(=O)NC)c(OC)c2)n1)c1ccccn1`: the inhibition in assay [1], in assay [2] and in assay [6] was greater than 50% throughout. Besides, the inhibition of growth at 20 µM in assay [3], in assay [4] and in assay [5] was greater than 50% each time.
In the case of `COc1cc(-c2cncc(NC(C)c3cccc(NC(=O)c4ccncc4)c3)n2)ccc1O` (centres undefined), the inhibition in assay [1], in assay [2] and in assay [6] was greater than 50% in each case. Further, the inhibition of growth at 20 µM in assay [4] was greater than 50%.
Regarding `CCCC(Nc1cncc(-c2ccc(OCCN(CC)CC)c(OC)c2)n1)c1ccccc1` (centres undefined), the inhibition in assay [2] was greater than 50%. Also, in assay [5], the inhibition of growth at 20 µM was greater than 50%.
`CC[C@H](Nc1nc(-c2ccc(O)c(OC)c2)ncc1C)c1cccnc1` came in with an inhibition in assay [2] greater than 50%. The inhibition of growth at 20 µM in assay [5] was greater than 50%.
As to `CCCC(Nc1cncc(-c2ccc(OCCCCN)c(OC)c2)n1)c1ccccc1` (centres undefined), the inhibition in assay [2] is greater than 50%. For the same molecule, the inhibition of growth at 20 µM in assay [5] was greater than 50%.
In assay [2], `CCC[C@H](Nc1cncc(-c2ccc(NC(=O)NCC)c(C)c2)n1)c1cccnc1` had an inhibition greater than 50%. Further, the inhibition of growth at 20 µM in assay [5] is greater than 50%.
Take `CCCC(Nc1cncc(-c2ccc(CN)c(OC)c2)n1)c1cccnc1` (centres undefined): in assay [2], the inhibition was greater than 50%. Also, the inhibition of growth at 20 µM in assay [5] was greater than 50%.
The molecule `CCCC(Nc1cncc(-c2ccc(NC(=O)NCC)c(C)c2)n1)c1cccnc1` (centres undefined) registered an inhibition in assay [2] greater than 50%. In addition, the inhibition of growth at 20 µM in assay [5] is greater than 50%.
In assay [2], `CCCC(Nc1cncc(-c2ccc(NC(=O)NCCCN3CCOCC3)c(OC)c2)n1)c1cccnc1` (centres undefined) displayed an inhibition greater than 50%. In addition, in assay [5], the inhibition of growth at 20 µM was greater than 50%.
`CCCC(Nc1cncc(-c2ccc(CNC(=O)C3CCNCC3)cc2)n1)c1ccccc1` (centres undefined): the inhibition in assay [2] is greater than 50%. The inhibition of growth at 20 µM in assay [5] was greater than 50%.
On to `CCCC(Nc1cncc(-c2ccc(NC(=O)NCC)c(OC)c2)n1)c1cccnc1C` (centres undefined), for which the inhibition in assay [2] was greater than 50%. Besides, in assay [5], the inhibition of growth at 20 µM is greater than 50%.
`COc1cc(-c2nccc(N[C@@H](C)c3ccccc3)n2)ccc1O` registered an inhibition in assay [2] greater than 50%. Moreover, the inhibition of growth at 20 µM in assay [5] was greater than 50%.
`CCCC(Nc1cncc(-c2ccc(NC(=O)NCCN(C)C)c(OC)c2)n1)c1cccnc1` (centres undefined): in assay [2], the inhibition is greater than 50%. The inhibition of growth at 20 µM in assay [5] is greater than 50%.
Turning to `CCCC(Nc1cncc(-c2ccc(NC(=O)NCC)c(C)c2)n1)c1cnccc1C` (centres undefined), the inhibition in assay [2] was greater than 50%. Moreover, in assay [5], the inhibition of growth at 20 µM is greater than 50%.
On to `CCCC(Nc1cncc(-c2ccc(NC(=O)NCC)c(C)c2)n1)c1ccccn1` (centres undefined), for which the inhibition in assay [2] was greater than 50%. Also, the inhibition of growth at 20 µM in assay [5] is greater than 50%.
For `CCCC(Nc1cncc(-c2ccc(OCCCCO)c(OC)c2)n1)c1ccccc1` (centres undefined), in assay [2], the inhibition is greater than 50%. In addition, the inhibition of growth at 20 µM in assay [5] is greater than 50%.
Molecule `COc1cc(-c2cncc(N[C@@H](C)c3ccccc3)c2)ccc1O` registered an inhibition in assay [2] greater than 50%. The inhibition of growth at 20 µM in assay [5] is greater than 50%.
For `CCCC(Nc1cc(-c2ccc(O)c(OC)c2)ncn1)c1cccnc1` (centres undefined), in assay [2], the inhibition is greater than 50%. For the same molecule, the inhibition of growth at 20 µM in assay [5] was greater than 50%.
With `CCC[C@H](Nc1cncc(-c2ccc(NC(=O)NCC)c(OC)c2)n1)c1ccccn1`, the inhibition in assay [2] was greater than 50%. The inhibition of growth at 20 µM in assay [5] is greater than 50%.
As to `CCCC(Nc1cncc(-c2ccc(NC(=O)NCC)c(OC)c2)n1)c1cccnc1` (centres undefined), the inhibition in assay [2] is greater than 50%. Further, in assay [5], the inhibition of growth at 20 µM was greater than 50%.
Molecule `CCNC(=O)Nc1ccc(-c2cncc(NC(CCOC)c3ccccc3)n2)cc1OC` (centres undefined) gave an inhibition in assay [2] greater than 50%. The inhibition of growth at 20 µM in assay [5] is greater than 50%.
Take `CCCC(Nc1nnc(C)c(-c2ccc(O)c(OC)c2)n1)c1ccccc1` (centres undefined): in assay [2], the inhibition is greater than 50%. Moreover, in assay [5], the inhibition of growth at 20 µM was greater than 50%.
`CCCC(Nc1cncc(-c2ccc(OCCCN3CCCC3)c(OC)c2)n1)c1ccccc1` (centres undefined): the inhibition in assay [2] was greater than 50%. For the same molecule, the inhibition of growth at 20 µM in assay [5] was greater than 50%.
For `CCCC(Nc1cncc(-c2ccc(OCCCCN3CCCCC3)c(OC)c2)n1)c1ccccc1` (centres undefined), in assay [2], the inhibition was greater than 50%. In addition, the inhibition of growth at 20 µM in assay [5] is greater than 50%.

The values above are taken from ChEMBL document CHEMBL3882736, “Modulation microtubules diseases; antiproliferative agents; antiinflamamtory agents” (2011).
